PubChem BioAssay (NCI)
Values joined by “and” are separate entries in the source; they are usually repeats but may differ in a detail not shown here. Equal entries are not always repeated.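 How tested: cells in 96-well plates exposed to compound for 48 hours at five concentrations. GI50 = concentration required for 50% inhibition of growth. TGI denotes the concentration required for complete inhibition of growth.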

What was measured:
Assay in all cases: DTP human tumour cell line panel, 48 h
BT-549 breast = system: BT-549 breast
DLD-1 colon = system: DLD-1 colon
DMS 114 small cell lung = system: DMS 114 small cell lung
M19-MEL melanoma = system: M19-MEL melanoma
RXF-631 renal = system: RXF-631 renal
XF 498 CNS = system: XF 498 CNS
DMS 273 small cell lung = system: DMS 273 small cell lung
SNB-78 CNS = system: SNB-78 CNS
MDA-N = system: MDA-N

Row | Compound | GI50 (BT-549 breast) | TGI (BT-549 breast) | TGI (DLD-1 colon) [µM] | TGI (M19-MEL melanoma) [µM] | also measured
1 | CC1(C)N=C(N)N=C(N)N1c1ccc(Cl)cc1 | 14.6 µM | > 100 µM |  |  | 
2 | CC(C)[C@@](O)(c1ccc2cc(OC(F)F)c(OC(F)F)cc2c1)c1cn[nH]n1 | 15.2 µM | 29.5 µM |  |  | 
3 | CC(C)(C)c1cc(/C=N/NC(=O)c2ccccc2NC(=O)c2cccs2)c(O)c(C(C)(C)C)c1 | 4.65 µM | > 100 µM |  |  | 
4 | O=C(CCc1ccccc1)NS(=O)(=O)c1ccccc1 |  |  | > 100 | > 100 | TGI (DMS 114 small cell lung): > 100 µM; TGI (RXF-631 renal): > 100 µM; TGI (XF 498 CNS): > 100 µM
5 | CC(C)(C)C(=O)Nc1cccc2oc(-c3ccccc3)cc12 |  |  | > 100 | > 100 | TGI (DMS 114 small cell lung): > 100 µM; TGI (DMS 273 small cell lung): > 100 µM; TGI (RXF-631 renal): > 100 µM; TGI (SNB-78 CNS): > 100 µM
6 | NC1CCCCC1N.O=C1C=C/C(=C(/c2ccc(O)c(Br)c2)c2ccccc2S(=O)(=O)[O-])C=C1Br.O=C1C=C/C(=C(/c2ccc(O)c(Br)c2)c2ccccc2S(=O)(=O)[O-])C=C1Br.[Pt+4] |  |  | > 100 | 32.2 | GI50 (DLD-1 colon): 5.27 µM; GI50 (DMS 273 small cell lung): 0.813 µM; TGI (DMS 273 small cell lung): 29.2 µM; GI50 (M19-MEL melanoma): 539 nM; GI50 (SNB-78 CNS): 48.2 µM; TGI (SNB-78 CNS): > 100 µM; GI50 (XF 498 CNS): 112 nM; TGI (XF 498 CNS): 0.927 µM
7 | COc1ccc(C2CC(c3ccc(Nc4ccnc5cc(Cl)ccc45)cc3)=NN2C=O)cc1 (stereo unspecified) | 10.9 µM | 36.6 µM |  |  | 
8 | COC(=O)c1ccc(/C=C(\c2ccc([N+](=O)[O-])o2)S(=O)(=O)c2ccc(NC(C)=O)cc2)o1 |  | 5.43 µM |  |  | 
9 | NS(=O)(=O)c1ccc(NC(=O)Cc2nc3ccccc3s2)cc1 |  |  | 29.5 | 28.1 | TGI (DMS 114 small cell lung): 29.2 µM; TGI (DMS 273 small cell lung): 33.1 µM; TGI (RXF-631 renal): 30.3 µM; TGI (SNB-78 CNS): 41.6 µM; TGI (XF 498 CNS): 29.8 µM
10 | COc1cc(-c2nc3sc(C)cn3c2/C=C2\C(=O)Nc3ccccc32)c(Br)c(OC)c1OC | 23.3 µM | 60.1 µM |  |  | 
11 | CC(C)(C)CC(C)(C)c1ccc(O)c(Cc2ccc(Cl)cc2Cl)c1 | 2.03 µM | 3.52 µM |  |  | 
12 | COc1cccc(/C=C/C(=O)c2sc(C(N)=S)nc2C)c1O |  |  | > 68.5 | > 100 | TGI (DMS 114 small cell lung): > 100 µM; TGI (DMS 273 small cell lung): > 91.3 µM; TGI (RXF-631 renal): > 100 µM; TGI (SNB-78 CNS): > 100 µM; TGI (XF 498 CNS): > 100 µM
13 | COC(=O)[C@]12CC[C@@H](C)[C@H](C)[C@@H]1C1=CC[C@@H]3[C@@]4(C)C[C@@H](OC(=O)/C=C/c5ccccc5)[C@H](O)[C@@](C)(CO)[C@@H]4[C@H](O)C[C@@]3(C)[C@]1(C)CC2 | 1.76 µM | 3.97 µM |  |  | 
14 | C#Cc1cccc(Nc2ncnc3ccc(OCCCCNCCS(C)(=O)=O)cc23)c1 | 8.33 µM | > 25 µM |  |  | 
15 | O=C(O)c1ccc(C(O)(c2ccccc2)c2ccccc2)cc1 |  | > 100 µM |  |  | TGI (MDA-N): > 100 µM
16 | C=CC(=O)N1C[C@@H]2CCOc3c(Cl)c(-c4c(O)cccc4F)c(F)c4ncnc(c34)N2C[C@H]1C | 2.48 µM | 12.9 µM |  |  | 
17 | COc1cc([N+](=O)[O-])c(OC)cc1-c1nc2sc(C)cn2c1/C(N)=N/C(=N)N | 29.8 µM | > 100 µM |  |  | 
18 | N#CCC(=O)N/N=C1/C(=O)N(c2cc(Cl)ccc2Cl)C(=O)C(=O)C1c1nc2ccccc2s1 (stereo unspecified) |  |  | > 100 | > 100 | TGI (DMS 114 small cell lung): > 100 µM; TGI (DMS 273 small cell lung): > 100 µM; TGI (RXF-631 renal): > 100 µM; TGI (SNB-78 CNS): > 100 µM
19 | Cc1ccc(C=C2C(Cl)=C(Cl)C(Cl)=C2Cl)cc1 | 0.882 µM | 3.32 µM |  |  | 

Row | Compound | GI50 (BT-549 breast) | TGI (BT-549 breast) | TGI (DLD-1 colon) [µM] | TGI (M19-MEL melanoma) [µM] | also measured
20 | Cc1cnc2oc3ccc(O)cc3c2c1-c1ccccc1 | 19.8 µM | 98.8 µM |  |  | 
21 | COc1cccc(-c2cc(=O)c3cc(N4CCOCC4)ccc3[nH]2)c1 |  |  |  |  | TGI (MDA-N): 0.0278 µM
22 | O=C(c1ccccc1Cl)n1oc2ccccc2c1=O |  | > 100 µM |  |  | TGI (MDA-N): > 100 µM
23 | O=C(C=P(c1ccccc1)(c1ccccc1)c1ccccc1)CCl | 1.89 µM | 7.14 µM |  |  | 
24 | Cn1cc(C2=C(c3cn(-c4ccccc4)c4ccccc34)C(=O)NC2=O)c2ccccc21 | 16.2 µM | > 25 µM |  |  | 
25 | Cc1ccc(S(=O)(=O)N2CCN(C=S)CC2)cc1 |  |  | > 100 | > 100 | TGI (DMS 114 small cell lung): > 100 µM; TGI (DMS 273 small cell lung): > 100 µM; TGI (RXF-631 renal): > 100 µM; TGI (SNB-78 CNS): > 100 µM
26 | CC(C)(C)c1cc(CCCCCCCC2(CCCCCCCc3cc(C(C)(C)C)cc(C(C)(C)C)c3)OC(COCCOCCCCCC#N)C(COCCOCCCCCC#N)O2)cc(C(C)(C)C)c1 (stereo unspecified) |  |  | > 100 | > 100 | TGI (DMS 114 small cell lung): > 100 µM; TGI (DMS 273 small cell lung): > 100 µM; TGI (SNB-78 CNS): > 100 µM
27 | Oc1ccc2c3c1OC1c4[nH]ncc4C[C@H]4[C@@H](C2)N(CC2CC2)CC[C@]314 (stereo partly specified) |  | > 100 µM |  |  | TGI (MDA-N): > 100 µM
28 | CCOC(=O)C(CCC(N)=O)(CCC(=O)OC)C(=O)OCC |  |  | > 100 | > 100 | TGI (DMS 114 small cell lung): > 100 µM; TGI (DMS 273 small cell lung): > 100 µM; TGI (SNB-78 CNS): > 100 µM; TGI (XF 498 CNS): > 100 µM
29 | NC(=S)N/N=C1\c2ccccc2-c2c(F)c(F)c(F)c(F)c21 | 4.92 µM | 10.7 µM |  |  | 
30 | CCOc1ccc(/C=C/c2cc(OC)c(OC)c(OC)c2)cc1 |  |  | > 100 | > 100 | TGI (DMS 114 small cell lung): 5.15 µM; TGI (RXF-631 renal): > 38 µM; TGI (SNB-78 CNS): 0.85 µM; TGI (XF 498 CNS): > 100 µM
31 | COc1cc(/C=C2\CCC/C(=C\c3ccc(O)c(OC)c3)C2=O)ccc1O | 1.76 µM | 14.2 µM and 3.28 µM | 3.38 | 3.9 | TGI (DMS 114 small cell lung): 4.48 µM; TGI (DMS 273 small cell lung): 3.07 µM; TGI (MDA-N): 12.5 µM; TGI (SNB-78 CNS): 8.03 µM; TGI (XF 498 CNS): 16.8 µM
32 | N#CC(C#N)=C1CCOc2ccc(F)cc21 | 53.4 µM | > 100 µM |  |  | 
33 | CCc1cnn2c(NCc3ccc[n+]([O-])c3)cc(N3CCCC[C@H]3CCO)nc12 | < 0.01 µM and 0.00331 µM | < 0.0183 µM and 0.0305 µM |  |  | 
34 | C#CC(=O)Nc1cccc2c1cc(C)n2-c1nc2c(c(NCc3ccccc3)n1)CCCC2 | 0.137 µM | 0.324 µM |  |  | 
35 | C/C(=N\OCC(O)CNCCSCc1ccccc1)c1ccccc1Cl (stereo unspecified) |  |  |  |  | TGI (MDA-N): 37.4 µM
36 | COc1cc(CNCCN2C(=O)c3ccc4c5c(ccc(c35)C2=O)C(=O)N(CCNCc2cc(OC)c(OC)c(OC)c2)C4=O)cc(OC)c1OC | 0.546 µM | 1.22 µM |  |  | 
37 | O=C1C(=C([O-])c2ccccc2)C(=O)c2ccccc21.O=C1C(=C([O-])c2ccccc2)C(=O)c2ccccc21.[Mn+2] |  |  | > 100 | > 100 | GI50 (DLD-1 colon): 62 µM; GI50 (DMS 273 small cell lung): 30.5 µM; TGI (DMS 273 small cell lung): > 100 µM; GI50 (M19-MEL melanoma): > 100000 nM
